# Reference: patent US11357862B2, “Peptide-conjugated nanoparticles for targeting, imaging, and treatment of prostate cancer” (Academia Sinica, priority 2016, dated 2022)
# Key:
# [1] = Pharmacokinetics of doxorubicin formulations; assay type: in vivo, NOD/SCID mice; conditions: 2 mg doxorubicin/kg, tail vein
# Method: Blood samples were drawn at selected time points, and quantities of doxorubicin were analyzed.
# [2] = system: PC3-Luc orthotopic tumors; assay: Orthotopic implantation and therapeutic study; assay type: in vivo, SCID mice; conditions: doxorubicin 1 mg/kg, vinorelbine 2 mg/kg i.v. twice a week, docetaxel 5 mg/kg i.p. once a week, 4 weeks
# Method: PC3 cells were transfected with Lenti-Luc virus (lentivirus containing the luciferase gene), and a stable PC3-Luc cell line was selected by puromycin screening. PC3-Luc cells (5×10^5 cells in 20 μl PBS per mouse) were orthotopically transplanted into the dorsal lobe of the prostate of SCID mice after anaesthesia with Avertin at a dose of 250 mg/kg. Seven days later, all mice bearing tumors were randomly divided into five groups (n=8 per group) based on photon flux indices detected using Xenogen IVIS® 200 Luminal Image. Tumor-bearing mice were treated with different formulations of anti-cancer drugs or PBS. Tumor development was recorded every 7 days. The body weights and survival rates were measured.
# Mice were injected with vehicle (PBS), docetaxel (5 mg/kg), liposomal drugs, or targeting liposomal drugs (doxorubicin 1 mg/kg; vinorelbine 2 mg/kg).
# [3] = system: DU145 prostate cancer xenografts; assay: In vivo phage homing and peptide competitive inhibition; design: species or system SCID mice; conditions: co-injection with PC204
# Method: (§1) SCID mice were injected s.c. with 5×10^6 prostate cancer cells. Once the prostate cancer xenografts reached a suitable size (about 200˜300 mm^3), the mice were injected i.v. with 2×10^9 pfu phages in the presence or absence of 100 μg synthetic peptides. After ten minutes, the mice were sacrificed and perfused with 50 ml PBS to remove unbound phages. Selected organs and xenograft tumors were removed, and the phage titer recovered by E. coli strain ER2738 was measured using IPTG/X-Gal spray. Partial organs and tumors were embedded using optimal cutting temperature compound (O.C.T.) to prepare sections for immunohistochemical staining.
# [4] = system: PC3 prostate cancer xenografts; assay: as above; design: species or system SCID mice; conditions: co-injection with PC204
# Method: as §1
# [5] = system: PC3 prostate cancer xenografts; assay: Immunohistochemical localization of phages after i.v. injection; assay type: in vivo, SCID mice; conditions: co-injected with PC204
# Method: as §1
# The tissue samples from in vivo phage homing experiments were embedded in frozen blocks. Phage distribution in each tissue was assessed by first removing O.C.T. with cold PBS, and then fixing the frozen sections with 4% paraformaldehyde for 10 min. The sections were incubated with 1% BSA for 30 min to block non-specific binding. After washing, the sections were incubated with mouse anti-M13 antibodies at a dilution of 1:250 for 1 hour, followed by treatment with polymer-based SUPER SENSITIVE™ IC detection system. In brief, the sections were incubated with SUPER […]™ reagent for 20 min and poly-HRP reagent for 30 min. DAB was used as a chromogen to visualize peroxidase activity, and the reaction was stopped by the addition of PBS. […]
compound,measurement,setting,value
"COc1cccc2c1C(=O)c1c(O)c3c(c(O)c1C2=O)C[C@@](O)(C(=O)CO)C[C@@H]3O[C@H]1C[C@H](N)[C@H](O)[C@H](C)O1 [FD, doxorubicin]",plasma pharmacokinetic profile of doxorubicin,[1],poor pharmacokinetic profile
CC(=O)O[C@@]12CO[C@@H]1C[C@H](O)[C@@]1(C)C(=O)[C@H](O)C3=C(C)[C@@H](OC(=O)[C@H](O)[C@@H](NC(=O)OC(C)(C)C)c4ccccc4)C[C@@](O)([C@@H](OC(=O)c4ccccc4)[C@H]21)C3(C)C [docetaxel],median survival times,[2],58 days
"SP204: synthetic targeting peptide KQFSALPFNFYT, SEQ ID NO: 8, the ligand displayed on phage PC204 (Phage clone No. 204 displayed peptide sequence)",inhibition of PC204 binding to tumor tissue by co-injected peptide,[3],2.87 fold
same,inhibition of PC204 binding to tumor tissue by co-injected peptide,[4],5.2 fold
same,phage immunoreactivity in tumor tissue on co-injection of PC204 with peptide,[5],no immunoreactivity was observed
